Reference: patent publication US20140349862A1, “METHODS AND COMPOSITIONS FOR THERAPEUTIC DRUG MONITORING AND DOSING BY POINT OF CARE PHARMACOKINETIC PROFILING” (priority 2011, published 2014)
Read-outs that look alike come from different tables or passages of the source.

Assays:
[1] = clinical; conditions: human, in vivo
Source text: To determine whether Abraxane PK has enough variability to benefit from therapeutic drug monitoring, we performed a PK analysis using all published literature on Abraxane PK. […] J Clin Oncol. 23:7785-93.). […] It is expected that Genexol-PM and Nanoxel would have the same PK variations. The wide variability of Abraxane was rather surprising. The role of therapeutic drug monitoring is to reduce this variability. Though PK profiles for Abraxane and Taxol were similar, there are differences. These differences, however, are small and could be masked by the large variation in PK of Abraxane/Taxol.
To determine whether medication used in assisted reproduction, i.e. FSH (follicle stimulating hormone), we performed a PK analysis using published literature on FSH PK. […] To compare it to 5-FU data, we used variability as SD/Mean.

[2] = tested on: patients with metastatic colorectal cancer; conditions: cited from earlier work
[3] = initial BSA dose, blood plasma concentration measured

AUC variability (range as % of the mean) [1]: 138%
AUC variability as SD/Mean [1]: 34.42%
AUC ([1]; mean): 9050 ng·h/mL
AUC ([1]; range): 3900 to 16400 ng·h/mL
Compound: O=c1[nH]cc(F)c(=O)[nH]1 [5-FU, 5-fluorouracil]
Median survival ([2]; BSA arm): 16 months
Response rate ([2]; BSA group (dosing by body surface area)): 18.3%
Response rate ([2]; dose-adjusted group (PK-guided dosing)): 33.6%
Patients found to be over-dosed (doses adjusted downward) [2, 3]: Seventeen
Patients found to be under-dosed (doses adjusted upwards) [2, 3]: Fifty eight
Improvement of overall survival at two years ([2]; personalized 5-FU dose management versus BSA arm): 48%
Median survival ([2]; personalized 5-FU dose management): 22 months
Grade III/IV 5-FU related toxicities ([2]; personalized dose adjustment versus BSA dosing): significantly lower
